Measured values published in patent US5889148A, “Antibiotic peptides” (priority 1995, dated 1999).
In brackets after ≈: the same amount, converted by molar mass. Non-standard residues stand in square brackets, D forms with d. No end group written: not given here. Aib = CC(C)(N)C(=O)O

Assays:
[1] = tested on: Candida albicans (ATCC 36232); test: MIC test, antifungal activity; assay type: cell-based
Description: (§1) Antibacterial and antifungal activities of the peptides were determined by employing MIC test as follows:
(§2) To determine antifungal activity, a test organism Candida albicans (ATCC 36232) was cultured on Sabouraud dextrose agar plate for 24 to 48 hrs, and colonies thus grown were suspended on Sabouraud dextrose medium(Gibco, USA) to have O.D.530 =0.5(3×10^6 cells) and further diluted with 100-fold to have O.D.530 =0.005(3×10^4 cells). 100 μl of Candida albicans culture thus prepared was pipetted on 96-well microplates which had already contained 100 μl of a serially diluted peptide solution.

[2] = tested on: Staphylococcus aureus (ATCC 6538); test: MIC test, antibacterial activity; assay type: cell-based
Description: as §1, §2
Antibacterial activity of peptide was determined analogously as above, with an exception that Staphylococcus aureus (ATCC 6538) selected as a test organism was cultured on M-3 medium(Gibco, USA) at 37° C. and cell number was adjusted to 2×10^8 cells before 100-fold dilution.

[3] = Table 3, addition of an amino acid to N-terminal of TED
[4] = Table 2, modification of N-terminal residues of TED
[5] = Table 1, peptide fragments of Tenecin
[6] = Table 4, addition of an amino acid to N-terminal of TEDF
[7] = Table 8, TEDFK derivatives of group 1
[8] = Table 7, comparison with Ketoconazole (Example 3)
[9] = Table 9, TEDFK derivatives of group 2
[10] = Table 11, enantiomer, retro-inverso, D-amino acid derivatives of M22
[11] = Table 6, substitution of Cys in TEDFK with Aib
[12] = Table 10, TEDFK derivatives of group 3

Molecule: CC(=O)N1CCN(c2ccc(OCC3COC(Cn4ccnc4)(c4ccc(Cl)cc4Cl)O3)cc2)CC1 (centres unmarked) [Ketoconazole, reference compound]
- MIC ([1]; Candida albicans, ATCC36232, Table 7, comparison with Ketoconazole (Example 3), read-out: MIC against C. albicans): 6 µg/mL (≈ 11.3 µM)

Molecule: AYCNGKRVCVCR--NH2 (AYCNGKRVCVCR-NH2; cysteine pairing not given here) [TEDA]
- MIC S. aureus [2, 3]: 10 µg/mL
- MIC C. albicans [1, 3]: 10 µg/mL

Molecule: CNGKRVCVCR--NH2 (CNGKRVCVCR-NH2; cysteine pairing not given here) [TED15]
- MIC against C. albicans [1, 4]: > 500 µg/mL

Molecule: DAACAAHHCLFR--NH2 (DAACAAHHCLFR-NH2; cysteine pairing not given here) [TEA]
- MIC S. aureus [2, 5]: > 500 µg/mL
- MIC C. albicans [1, 5]: > 100 µg/mL

Molecule: DFYCNGKRVCVCR--NH2 (DFYCNGKRVCVCR-NH2; cysteine pairing not given here) [TEDFD]
- MIC S. aureus [2, 6]: > 500 µg/mL
- MIC C. albicans [1, 6]: > 500 µg/mL

Molecule: DYCNGKRVCVCR--NH2 (DYCNGKRVCVCR-NH2; cysteine pairing not given here) [TEDD]
- MIC S. aureus [2, 3]: 10 µg/mL
- MIC C. albicans [1, 3]: 50 µg/mL

Molecule: FFYCNGKRVCVCR--NH2 (FFYCNGKRVCVCR-NH2; cysteine pairing not given here) [TEDFF]
- MIC S. aureus [2, 6]: 5 µg/mL
- MIC C. albicans [1, 6]: 3 µg/mL

Molecule: FKYCNGKRVCVCR--NH2 (FKYCNGKRVCVCR-NH2; cysteine pairing not given here) [M3]
- MIC S. aureus [2, 7]: 12.7 µg/mL
- MIC C. albicans [1, 7]: 12.5 µg/mL

Molecule: FPYCNGKRVCVCR--NH2 (FPYCNGKRVCVCR-NH2; cysteine pairing not given here) [TEDFP]
- MIC S. aureus [2, 6]: > 500 µg/mL
- MIC C. albicans [1, 6]: > 500 µg/mL

Molecule: FYCNGKRVCVCR--NH2 (FYCNGKRVCVCR-NH2; cysteine pairing not given here) [TEDF]
- MIC S. aureus [2, 3]: 5 µg/mL
- MIC S. aureus [2, 6]: 5 µg/mL
- MIC C. albicans [1, 3]: 10 µg/mL
- MIC C. albicans [1, 6]: 10 µg/mL

Molecule: GKRVCVCR--NH2 (GKRVCVCR-NH2; cysteine pairing not given here) [TED11]
- MIC against C. albicans [1, 4]: > 500 µg/mL

Molecule: KCNGKRVCVCR--NH2 (KCNGKRVCVCR-NH2; cysteine pairing not given here) [TED18]
- MIC against C. albicans [1, 4]: > 500 µg/mL

Molecule: KFYCDGKRVCVCR--NH2 (KFYCDGKRVCVCR-NH2; cysteine pairing not given here) [M18]
- MIC S. aureus [2, 7]: 12.7 µg/mL
- MIC C. albicans [1, 7]: 12.5 µg/mL

Molecule: KFYCKGKRVCVCR--NH2 (KFYCKGKRVCVCR-NH2; cysteine pairing not given here) [TEDFK-7]
- MIC against C. albicans ([1]; Table 5, modification of TEDFK): 3 µg/mL
- MIC against C. albicans [1, 8]: 3 µg/mL

Molecule: KFYCNGKRICICR--NH2 (KFYCNGKRICICR-NH2; cysteine pairing not given here) [M13]
- MIC S. aureus [2, 7]: 6.35 µg/mL
- MIC C. albicans [1, 7]: 6.25 µg/mL

Molecule: KFYCNGKRVCVCD--NH2 (KFYCNGKRVCVCD-NH2; cysteine pairing not given here) [TEDFK-11]
- MIC against C. albicans ([1]; Table 5, modification of TEDFK): 5 µg/mL
- MIC against C. albicans [1, 8]: 6 µg/mL

Molecule: KFYCNGKRVCVCL--NH2 (KFYCNGKRVCVCL-NH2; cysteine pairing not given here) [TEDFK-10]
- MIC against C. albicans ([1]; Table 5, modification of TEDFK): 5 µg/mL
- MIC against C. albicans [1, 8]: 6 µg/mL

Molecule: KFYCNGKRVCVCR--NH2 [TEDFK-8] (KFYCNGKRVCVCR-NH2; cysteine pairing not given here)
- MIC against C. albicans ([1]; Table 5, modification of TEDFK): 5 µg/mL
- MIC against C. albicans [1, 8]: 6 µg/mL

Molecule: KFYCNGKRVCVCR--NH2 [TEDFK] (KFYCNGKRVCVCR-NH2; cysteine pairing not given here)
- MIC S. aureus [2, 6]: 5 µg/mL
- MIC S. aureus [2, 7]: 6.25 µg/mL
- MIC S. aureus [2, 9]: 6.25 µg/mL
- MIC S. aureus [2, 10]: 6.25 µg/mL
- MIC C. albicans [1, 6]: 3 µg/mL
- MIC against C. albicans ([1]; Table 5, modification of TEDFK): 3 µg/mL
- MIC against C. albicans [1, 11]: 3 µg/mL
- MIC C. albicans [1, 7]: 6.25 µg/mL
- MIC C. albicans [1, 9]: 6.25 µg/mL
- MIC against C. albicans [1, 12]: 6.25 µg/mL
- MIC C. albicans [1, 10]: 6.25 µg/mL

Molecule: KFYCNGKRVCVCW--NH2 (KFYCNGKRVCVCW-NH2; cysteine pairing not given here) [M31]
- MIC S. aureus [2, 7]: 12.7 µg/mL
- MIC C. albicans [1, 7]: 12.5 µg/mL

Molecule: KFYCNGKRVCV[Aib]R-NH2 (cysteine pairing not given here) [TEDFK-3A]
- MIC against C. albicans [1, 11]: 20 µg/mL
- MIC against C. albicans [1, 8]: 12 µg/mL

Molecule: KFYCNGKRV[Aib]VCK-NH2 (cysteine pairing not given here) [M25]
- MIC S. aureus [2, 7]: 6.35 µg/mL
- MIC C. albicans [1, 7]: 6.25 µg/mL

Molecule: KFYCNGKRV[Aib]VCR-NH2 (cysteine pairing not given here) [TEDFK-2A]
- MIC against C. albicans [1, 11]: 5 µg/mL
- MIC against C. albicans [1, 8]: 6 µg/mL

Molecule: KFYCNGRVCVCR--NH2 (KFYCNGRVCVCR-NH2; cysteine pairing not given here) [TEDFK-2]
- MIC against C. albicans ([1]; Table 5, modification of TEDFK): 5 µg/mL
- MIC against C. albicans [1, 8]: 6 µg/mL

Molecule: KFYCNKKRVCVCR--NH2 (KFYCNKKRVCVCR-NH2; cysteine pairing not given here) [TEDFK-5]
- MIC against C. albicans ([1]; Table 5, modification of TEDFK): 5 µg/mL
- MIC against C. albicans [1, 8]: 3 µg/mL

Molecule: KFYCNKRVCVCR--NH2 (KFYCNKRVCVCR-NH2; cysteine pairing not given here) [TEDFK-1]
- MIC against C. albicans ([1]; Table 5, modification of TEDFK): 5 µg/mL

Molecule: KFYCNLKRVCVCR--NH2 (KFYCNLKRVCVCR-NH2; cysteine pairing not given here) [TEDFK-4]
- MIC against C. albicans ([1]; Table 5, modification of TEDFK): 5 µg/mL

Molecule: KFYCNPGPVCVCR--NH2 (KFYCNPGPVCVCR-NH2; cysteine pairing not given here) [TEDFK-9]
- MIC against C. albicans ([1]; Table 5, modification of TEDFK): 20 µg/mL
- MIC against C. albicans [1, 8]: 12 µg/mL

Molecule: KFYCNPKRVCVCR--NH2 (KFYCNPKRVCVCR-NH2; cysteine pairing not given here) [TEDFK-3]
- MIC against C. albicans ([1]; Table 5, modification of TEDFK): 5 µg/mL
- MIC against C. albicans [1, 8]: 6 µg/mL

Molecule: KFYCNWKRVCVCR--NH2 (KFYCNWKRVCVCR-NH2; cysteine pairing not given here) [M30]
- MIC S. aureus [2, 7]: 12.7 µg/mL
- MIC C. albicans [1, 7]: 12.5 µg/mL

Molecule: KFYCVGKRVCVCR--NH2 (KFYCVGKRVCVCR-NH2; cysteine pairing not given here) [TEDFK-6]
- MIC against C. albicans ([1]; Table 5, modification of TEDFK): 5 µg/mL
- MIC against C. albicans [1, 8]: 6 µg/mL

Molecule: KFY[Aib]KGKRVCVCR-NH2 (cysteine pairing not given here) [M17]
- MIC S. aureus [2, 7]: 6.35 µg/mL
- MIC C. albicans [1, 7]: 6.25 µg/mL

Molecule: KFY[Aib]KKVCVCK-NH2 (cysteine pairing not given here) [M8]
- MIC S. aureus [2, 7]: 3.16 µg/mL
- MIC C. albicans [1, 7]: 3.12 µg/mL

Molecule: KFY[Aib]NGKRVCVCR-NH2 (cysteine pairing not given here) [TEDFK-1A]
- MIC against C. albicans [1, 8]: 2 µg/mL

Molecule: KGKRVCVCR--NH2 (KGKRVCVCR-NH2; cysteine pairing not given here) [TED12]
- MIC against C. albicans [1, 4]: > 500 µg/mL

Molecule: KKYCNGKRVCVCR--NH2 (KKYCNGKRVCVCR-NH2; cysteine pairing not given here) [M1]
- MIC S. aureus [2, 7]: 3.16 µg/mL
- MIC C. albicans [1, 7]: 3.12 µg/mL

Molecule: KKYCNKKCVCK--NH2 [M5] (KKYCNKKCVCK-NH2; cysteine pairing not given here)
- MIC S. aureus [2, 7]: 3.16 µg/mL
- MIC C. albicans [1, 7]: 3.12 µg/mL

Molecule: KKYCNKKCVCK--NH2 [M6] (KKYCNKKCVCK-NH2; cysteine pairing not given here)
- MIC S. aureus [2, 7]: 3.16 µg/mL
- MIC C. albicans [1, 7]: 3.12 µg/mL

Molecule: KKYCNXRVCVCR--NH2 [M4]
- MIC S. aureus [2, 7]: 3.16 µg/mL
- MIC C. albicans [1, 7]: 3.12 µg/mL

Molecule: KKYIKKVFVFk--NH2 [M22-7]
- MIC S. aureus [2, 10]: 3.11 µg/mL
- MIC C. albicans [1, 10]: 3.12 µg/mL

Molecule: KKYIVFVFK--NH2 (KKYIVFVFK-NH2) [M33]
- MIC against C. albicans [1, 12]: 3.12 µg/mL

Molecule: KKYIkkVFVFK--NH2 [M22-27]
- MIC S. aureus [2, 10]: 3.17 µg/mL
- MIC C. albicans [1, 10]: 3.11 µg/mL

Molecule: KKyIKKVFVFK--NH2 [M22-26]
- MIC S. aureus [2, 10]: 3.16 µg/mL
- MIC C. albicans [1, 10]: 3.15 µg/mL

Molecule: KPYCNGKRVCVCR--NH2 (KPYCNGKRVCVCR-NH2; cysteine pairing not given here) [M2]
- MIC S. aureus [2, 7]: 6.35 µg/mL
- MIC C. albicans [1, 7]: 6.25 µg/mL

Molecule: KWYCNGKRVCVCR--NH2 (KWYCNGKRVCVCR-NH2; cysteine pairing not given here) [M26]
- MIC S. aureus [2, 7]: 6.35 µg/mL
- MIC C. albicans [1, 7]: 6.25 µg/mL

Molecule: KYCNGKRVCVCR--NH2 (KYCNGKRVCVCR-NH2; cysteine pairing not given here) [TEDK]
- MIC S. aureus [2, 3]: 5 µg/mL
- MIC C. albicans [1, 3]: 5 µg/mL

Molecule: KYCNGKRVCVCRK--NH2 (KYCNGKRVCVCRK-NH2; cysteine pairing not given here) [M16]
- MIC S. aureus [2, 7]: 6.35 µg/mL
- MIC C. albicans [1, 7]: 6.25 µg/mL

Molecule: LCNGKRVCVCR--NH2 (LCNGKRVCVCR-NH2; cysteine pairing not given here) [TED17]
- MIC against C. albicans [1, 4]: 100 µg/mL

Molecule: LFYCNGKRVCVCR--NH2 (LFYCNGKRVCVCR-NH2; cysteine pairing not given here) [TEDFL]
- MIC S. aureus [2, 6]: 30 µg/mL
- MIC C. albicans [1, 6]: 100 µg/mL

Molecule: LSVEAKGVKLGGGYCNGKRVCVCR--NH2 (LSVEAKGVKLGGGYCNGKRVCVCR-NH2; cysteine pairing not given here) [TEQ]
- MIC S. aureus [2, 5]: > 500 µg/mL
- MIC C. albicans [1, 5]: > 100 µg/mL
